Results taken from patent US20220211699A1 (priority 2019, published 2022).

Legend:
[1] = system: patients with diabetic neuropathy; test: Clinical study, Brief Pain Inventory-Short Form (BPI-SF) pain self-assessment; format: in vivo; settings: Group 3
Experimental: (§1) The clinical study was carried out on a population of 142 patients with diabetic neuropathy of both sexes and aged between 18 and 75 years. Patients were divided into three groups and submitted to a randomized, double blind, placebo-controlled, parallel-group clinical trial, with double-dummy modality for patients in group 2.
(§2) Group 1 was treated with 20 mg trazodone (10 drops of 6% trazodone hydrochloride solution) three times a day for 8 weeks, for a total of 60 mg a day.
(§3) Group 2 was treated with 10 mg trazodone (5 drops of 6% trazodone hydrochloride solution) three times a day for 8 weeks, for a total of 30 mg a day.
(§4) Group 3 was treated with placebo, 10 drops of an oral solution three times a day for 8 weeks.
(§5) During the ninth week, concluding the clinical trial, group 1 was treated with 10 mg trazodone three times daily for a total of 30 mg per day, while both group 2 and group 3 were treated with placebo.
The 6% trazodone hydrochloride solution contained trazodone hydrochloride (6%), macrogol (35%), propylene glycol (30%), citric acid (0.5%), sucrose (0.15%), sodium hydroxide (0.125%), propyl gallate (0.10%), disodium edetate (0.05%), and purified water as needed at 100 mL. The placebo solution is identical to trazodone solution, but without active ingredient.
Gabapentin was administered in an incremental dosage for all patients treated according to the dosage regimen shown in Table 1 below using capsules containing 100 mg, 300 mg and 400 mg of commercially available gabapentin (Neurontin®, Pfizer). The capsules contain lactose monohydrate, corn starch and talc as excipients, and E171 and […] color combinations.
At the beginning of treatment and at the end of each treatment week, the patients under treatment completed the Brief Pain Inventory-Short Form (BPI-SF), which includes a set of questions relating to pain self-assessment (Zelman D C, et al., “Validation of a modified version of the pain inventory brief for painful diabetic peripheral neuropathy”, J. Pain Symptom Manage. 2005 April; 29(4):401-10).
In particular, patients assessed the average pain intensity in the week prior to the assessment (issue 5) and at the time of the assessment (issue 6) on a scale from 0 to 10 where 0 represents “no pain” and 10 represents “more pain than you can imagine”.
At each visit the evaluations were collected and processed in order to determine the deviation from the average value obtained for each group at the beginning of the treatment. The results were collected in the following Tables 3 and 4, from which the graphs shown in FIGS. 1 and 2 were obtained, respectively.

[2] = system: patients with diabetic neuropathy; test: Clinical study, SF-36 Mental Component Summary (MCS): positive risk of depression or anxiety; format: in vivo; settings: Group 3
Experimental: as §1, §2, §3, §4, §5
Gabapentin was administered in an incremental dosage for all patients treated according to the dosage regimen shown in Table 1 below using capsules containing 100 mg, 300 mg and 400 mg of commercially available gabapentin (Neurontin®, Pfizer). […]
The results are expressed as a percentage of patients with a positive risk of depression or anxiety compared to the normal general population in which a normal value of […] is estimated.

[3] = system: diabetic patients suffering from peripheral diabetic neuropathy; settings: 100 mg/day in a divided dose; 6 diabetic patients; cited from earlier work
[4] = system: adult diabetic patients with painful distal symmetrical polyneuropathy; settings: oral 50 or 100 mg/day; after 2 weeks of therapy; cited from earlier work
[5] = Visit 1, placebo drops + gabapentin 300 mg/day
[6] = Visit 2, placebo drops + gabapentin 600 mg/day
[7] = Visit 3, placebo drops + gabapentin 900 mg/day
[8] = Visit 4, placebo drops + gabapentin 1200 mg/day
[9] = Visit 5, placebo drops + gabapentin 1800 mg/day
[10] = Visit 6, placebo drops + gabapentin 2400 mg/day
[11] = Visit 7, placebo drops + gabapentin 2400 mg/day
[12] = Visit 8, placebo drops + gabapentin 2400 mg/day
[13] = Visit 9, placebo drops + gabapentin
[14] = placebo drops + incremental gabapentin

NCC1(CC(=O)O)CCCCC1 [gabapentin, 2-[1-(aminomethyl)cyclohexyl] acetic acid]
Average pain assessment deviation from beginning of treatment (Visit 0), Question 5 [1, 5]: −1.0 | Average pain assessment deviation from beginning of treatment (Visit 0), Question 6 [1, 5]: −0.9 | Average pain assessment deviation from beginning of treatment (Visit 0), Question 5 [1, 6]: −1.7 | Average pain assessment deviation from beginning of treatment (Visit 0), Question 6 [1, 6]: −1.4 | Average pain assessment deviation from beginning of treatment (Visit 0), Question 5 [1, 7]: −2.1 | Average pain assessment deviation from beginning of treatment (Visit 0), Question 6 [1, 7]: −1.7 | Average pain assessment deviation from beginning of treatment (Visit 0), Question 5 [1, 8]: −1.9 | Average pain assessment deviation from beginning of treatment (Visit 0), Question 6 [1, 8]: −1.6 | Average pain assessment deviation from beginning of treatment (Visit 0), Question 5 [1, 9]: −2.1 | Average pain assessment deviation from beginning of treatment (Visit 0), Question 6 [1, 9]: −1.8 | Average pain assessment deviation from beginning of treatment (Visit 0), Question 5 [1, 10]: −2.4 | Average pain assessment deviation from beginning of treatment (Visit 0), Question 6 [1, 10]: −2.0 | Average pain assessment deviation from beginning of treatment (Visit 0), Question 5 [1, 11]: −2.4 | Average pain assessment deviation from beginning of treatment (Visit 0), Question 6 [1, 11]: −1.9 | Average pain assessment deviation from beginning of treatment (Visit 0), Question 5 [1, 12]: −2.5 | Average pain assessment deviation from beginning of treatment (Visit 0), Question 6 [1, 12]: −2.0 | Average pain assessment deviation from beginning of treatment (Visit 0), Question 5 [1, 13]: −2.5 | Average pain assessment deviation from beginning of treatment (Visit 0), Question 6 [1, 13]: −2.0 | Patients with 50% reduction (percentage of patients with a reduction of at least 50% compared to the initial value), question 5 [1, 14]: 45.8% | Sum deviations (sum of all the deviations obtained at each visit), question 5 [1, 14]: −117.6 | percentage of patients with a positive risk of depression or anxiety ([2]; Visit 0 (beginning of treatment, baseline)): 38% | percentage of patients with a positive risk of depression or anxiety ([2]; Visit 8 (end of treatment), placebo drops + incremental gabapentin): 29%

O=c1n(CCCN2CCN(c3cccc(Cl)c3)CC2)nc2ccccn12 [trazodone, 2-(3-[4-(3-chlorophenyl)piperazin-1-yl]propyl)-[1,2,4]triazole[4,3-a]pyridin-3(2H)-one]
effect in pain relief and numbness [3]: good effect | patients with complete relief [4]: 22.6% | patients with symptomatic relief [4]: 61.3%
